{"source": "patent US20240050436A1", "about": "“COMPOSITIONS AND METHODS USED FOR RETINAL ISCHEMIA OR DIABETES” (The United States GOVERNMENT As Represented By The …, priority 2021, published 2024)", "biological_target": "T1, p75^NTR (Mus musculus, UniProt Q9Z0W1)", "T1 construct": "Interventional treatment with the p75^NTR modulator LM11A-31 (50 mg/Kg, po, QOD) for 12 weeks; from tissue; host or cells: living STZ-diabetic mice (kidney, urine, blood, body weight)", "T1 sequence (Q9Z0W1 32-427)": "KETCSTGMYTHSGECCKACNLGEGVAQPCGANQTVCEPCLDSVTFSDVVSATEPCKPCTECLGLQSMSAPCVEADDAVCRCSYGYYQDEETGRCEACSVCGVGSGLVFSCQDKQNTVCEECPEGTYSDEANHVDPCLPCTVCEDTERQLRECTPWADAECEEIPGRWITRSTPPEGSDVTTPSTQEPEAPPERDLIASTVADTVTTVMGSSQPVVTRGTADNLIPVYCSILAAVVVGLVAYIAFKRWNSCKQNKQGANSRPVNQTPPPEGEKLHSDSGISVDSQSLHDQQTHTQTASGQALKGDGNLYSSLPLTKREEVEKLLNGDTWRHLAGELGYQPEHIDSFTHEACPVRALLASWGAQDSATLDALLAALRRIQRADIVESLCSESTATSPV", "test": "Visual acuity test (cue version of Morris water maze) post retinal I/R", "format": "in vivo", "conditions": "WT mice", "protocol": "For surgeries, mice were anesthetized with intraperitoneal ketamine (50 mg/kg; Hospira, Inc., Lake Forest, IL, USA) and xylazine (10 mg/kg; Akorn, Decatur, IL, USA). Retinal ischemia/reperfusion (I/R) was performed as described previously in Coucha, M. et al. Modulating Expression of Thioredoxin Interacting Protein (TXNIP) Prevents Secondary Damage and Preserves Visual Function in a Mouse Model of Ischemia/Reperfusion. Int. J. Mol. Sci. 2019, 20. Briefly, pupils were dilated with 1% Atropine Sulfate (Akorn, Inc., Lake Forest, IL, USA). The anterior chamber was cannulated with a 32 gauge needle attached to a line from a saline reservoir at a height calibrated to yield 120 mmHg. The intraocular pressure (IOP) was elevated to 120 mmHg for 45-60 min. I/R injury and choroidal nonperfusion was evident by whitening of the anterior segment of the globe and blanching of the episcleral veins. During infusion, topical anesthesia (0.5% tetracaine HCL, Bausch & Lomb, NJ, USA) was applied to the cornea. After ischemia, the needle was immediately withdrawn, allowing for rapid reperfusion, IOP was normalized, and reflow of the retinal vasculature was confirmed by observation of the episcleral veins. […]\nVisual acuity was assessed behaviorally by training and testing mice on the “cue” version of the Morris water maze task. […]", "note": "Entries after “also recorded” stand apart in the source; their conditions may differ."}
{"molecule": "CCC(C)C(N)C(=O)NCCN1CCOCC1", "note": "(centres unmarked) [LM11A-31, 2-amino-3-methyl-pentanoic acid [2-morpholin-4-yl-ethyl]-amide]", "values": [{"measurement": "time to reach the platform (visual-clue water maze)", "setting": "I/R both eyes, 50 mg/kg/day oral gavage every other day from 48 h post I/R, 6, 9, 12, 15 days post I/R, 50 mg/kg/day", "value": "significantly ameliorated; also recorded: attenuated"}, {"measurement": "area under the curve (AUC) of time to platform after 15 days", "setting": "I/R, 50 mg/kg/day oral gavage every other day", "value": "normalized"}]}
